# Measurements: US20230027472A1, “TARGETING P73 FOR CANCERS RESISTANT TO BH3 MIMETICS” (BOARD OF REGENTS, THE UNIVERSITY OF TEXAS SYSTEM, priority 2019, published 2023)
# Experiments:
# Format in all cases: cell-based
# OCI-AML3 cells [1] = assay: Annexin V staining and live cell counting by flow cytometry in OCI-AML3 cells with lentiviral p73 knockdown
# Method: Apoptosis induction was measured by annexin V staining (Annexin V positive cells (%)), and live cell numbers were measured by counting beads by flow cytometry.
# TAp73 and ΔNp73 = TAp73 and ΔNp73 levels in AML cells after (R)-2HG treatment
# Description: Results The inventors determined copy numbers of ΔNp73 and TAp73 mRNA levels in 78 AML samples including 31 de novo AML using droplet digital PCR (ddPCR), which allows to determine the absolute quantity of the isoforms expressed, and investigated their clinical and biological relevance. ΔNp73 and TAp73 expression was detected in 93.6% and 98.7% of AML samples at variable levels (mean±SEM, 10.6±5.0, and 106.6±33.7 copies/μL, for ΔNp73 and TAp73, respectively). ΔNp73 and TAp73 mRNA levels were highly correlated (R^2=0.72, P<0.0001). […] However, AML with IDH1/2 mutations had 8.5-fold lower ΔNp73 expression than those with wild-type IDH1/2 (1.8±0.8 vs 15.4±7.7 copies/μL, P=0.0069), with a similar trend for TAp73 (49.0±20.3 vs 138.6±51.4 copies/μL, P=0.056). […] To further explore the regulation of TP73 isoforms, the inventors used MDM2 inhibitor Nutlin-3a to induce p53 which is a transcriptional inducer of ΔNp73. […] AML cells with IDH1/2 mutations are more dependent on Bcl-2 than those without (Chan, Nat Med 2015).
# AML cells = assay: Susceptibility of AML cells to Bcl-2 inhibitor ABT-199 (VEN) after (R)-2HG treatment; details: AML cells treated with 2HG
# MOLM-13 cells [2] = assay: Sensitivity of MOLM-13 parent and ABT-199 resistant (ABTR) cells to ABT-199, annexin V and live cell numbers; details: MOLM-13 ABTR cells versus parent
# Method: (§1) In FIG. 2A, there are immunoblot images of two AML cell lines (MOLM-13 and MV4;11 cells) that acquired ABT-199 resistance (ABTR) through long-term exposure to continuous treatment of ABT-199. Parental control cells (Parent) are used for comparison. Histone H3 (H3) serves as a loading control, and relative protein levels were measured as ratios of target proteins and H3 through densitometry. […] In FIG. 2B, there is shown sensitivity of MOLM-13 and MV4;11 parent and ABTR cells to ABT-199. Apoptosis induction was measured by annexin V staining (Annexin V positive cells (%)), and live cell numbers were measured by counting beads by flow cytometry.
# MV4;11 cells = assay: Sensitivity of MV4;11 parent and ABT-199 resistant (ABTR) cells to ABT-199, annexin V and live cell numbers; details: MV4;11 ABTR cells versus parent
# Method: as §1
# MOLM-13 cells [3] = assay: Sensitivity to ABT-199 in MOLM-13 cells with overexpression of p73 isoforms/variants, annexin V and live cell numbers
# Method: In FIG. 3A, there are immunoblot images of different p73 N-terminal isoforms (TA and ΔN) and C-terminal variants (α, β and γ) protein levels. MOLM13 cells with overexpression of those p73 isoforms/variants was generated by lentiviral transfection. β-actin serves as a loading control. Successful overexpression of p73 isoforms/variants in MOLM-13 cells, which are originally sensitive to ABT-199. […] Apoptosis induction was measured by annexin V staining (Annexin V positive cells (%)), and live cell numbers were measured by counting beads by flow cytometry. […] A p73 isoform ΔNp73γ overexpression induced resistance to ABT-199, indicating a novel resistance mechanism by p73 isoforms/variants to ABT-199 in AML cells.
# OCI-AML3 cells [4] = assay: Apoptosis induction by Nutlin-3a (specific annexin V induction) in OCI-AML3 cells with vector control or p73 knockdown; details: 5 μM Nutlin-3a
# Description: (§2) To further explore the regulation of TP73 isoforms, the inventors used MDM2 inhibitor Nutlin-3a to induce p53 which is a transcriptional inducer of ΔNp73.
# p73 = p73 protein levels after MDM2 inhibition in AML cells
# Description: as §2
structure (smiles),measurement,setting,value
Nc1ncn([C@@H]2O[C@H](CO)[C@@H](O)[C@H]2O)c(=O)n1 [5′-azacitidine],"apoptosis induction (Annexin V positive cells), p73 knockdown versus control",OCI-AML3 cells [1]; p73 knockdown,enhances apoptosis induction
O=C(O)CC[C@@H](O)C(=O)O [(R)-2HG],TAp73 and ΔNp73 levels,TAp73 and ΔNp73,reduced both TAp73 and ΔNp73
same,susceptibility to the Bcl-2 inhibitor ABT-199 (VEN),AML cells,increased susceptibility
CC1(C)CCC(CN2CCN(c3ccc(C(=O)NS(=O)(=O)c4ccc(NCC5CCOCC5)c([N+](=O)[O-])c4)c(Oc4cnc5[nH]ccc5c4)c3)CC2)=C(c2ccc(Cl)cc2)C1 [ABT-199],sensitivity to VEN,OCI-AML3 cells [1]; lentiviral knockdown of p73,enhanced sensitivity
same,"apoptosis induction (Annexin V positive cells), p73 knockdown versus control",OCI-AML3 cells [1]; p73 knockdown,greater
same,"live cell numbers, p73 knockdown versus control",OCI-AML3 cells [1]; p73 knockdown,superior reduction of live cell numbers
same,"sensitivity to ABT-199 (apoptosis, live cell numbers)",MOLM-13 cells [2],clearly show resistance
same,"sensitivity to ABT-199 (apoptosis, live cell numbers)",MV4;11 cells,clearly show resistance
same,"sensitivity to ABT-199 (apoptosis, live cell numbers)",MOLM-13 cells [3]; MOLM-13 cells with TAp73α overexpression,still sensitive
same,"sensitivity to ABT-199 (apoptosis, live cell numbers)","MOLM-13 cells [3]; MOLM-13 cells with TAp73α overexpression, listed as VEN",minimally increased VEN-induced apoptosis
same,"sensitivity to ABT-199 (apoptosis, live cell numbers)",MOLM-13 cells [3]; MOLM-13 cells with vector control,still sensitive
same,"sensitivity to ABT-199 (apoptosis, live cell numbers)",MOLM-13 cells [3]; MOLM-13 cells with ΔNp73β overexpression,still sensitive
same,"sensitivity to ABT-199 (apoptosis, live cell numbers)",MOLM-13 cells [3]; MOLM-13 cells with ΔNp73γ overexpression,resistant
same,"sensitivity to ABT-199 (apoptosis, live cell numbers)","MOLM-13 cells [3]; MOLM-13 cells with ΔNp73γ overexpression, listed as VEN",striking resistance
COc1ccc(C2=N[C@@H](c3ccc(Cl)cc3)[C@@H](c3ccc(Cl)cc3)N2C(=O)N2CCNC(=O)C2)c(OC(C)C)c1 [Nutlin-3a],specific annexin V induction,OCI-AML3 cells [4]; OCI-AML3 cells with Shp73 (knockdown of TAp73 and ΔNp73),61.3±5.2%
same,specific annexin V induction,OCI-AML3 cells [4]; OCI-AML3 cells with vector control,21.9±1.3%
same,p73 protein levels,p73,increased p73 protein levels
CCCCCCCCOC(=O)[C@H](O)CCC(=O)O [octyl-(R)-2HG],TAp73 and ΔNp73 levels,TAp73 and ΔNp73,reduced both TAp73 and ΔNp73
same,susceptibility to the Bcl-2 inhibitor ABT-199 (VEN),AML cells,increased susceptibility
